Laboratory results as given in patent publication US8173689B2 (Novartis AG, priority 2006, dated 2012).
Like-named read-outs stand apart in the source and are kept apart here.

Key:
[1] = molecular target: T1, cytoplasmic domain of the human CSF-1R (Homo sapiens, UniProt P07333); experiment: In vitro kinase assay for colony stimulating factor-1 receptor (AlphaScreen); format: biochemical; settings: tested at about 1 μM; for inhibition at 1 µM: read-out: CSF-1R percent inhibition
T1 construct: Recombinant protein corresponding to the cytoplasmic domain of the human CSF-1R; purchased Invitrogen Corporation, Carlsbad, Calif; PV3249
T1 sequence (P07333 539-972 limits assumed): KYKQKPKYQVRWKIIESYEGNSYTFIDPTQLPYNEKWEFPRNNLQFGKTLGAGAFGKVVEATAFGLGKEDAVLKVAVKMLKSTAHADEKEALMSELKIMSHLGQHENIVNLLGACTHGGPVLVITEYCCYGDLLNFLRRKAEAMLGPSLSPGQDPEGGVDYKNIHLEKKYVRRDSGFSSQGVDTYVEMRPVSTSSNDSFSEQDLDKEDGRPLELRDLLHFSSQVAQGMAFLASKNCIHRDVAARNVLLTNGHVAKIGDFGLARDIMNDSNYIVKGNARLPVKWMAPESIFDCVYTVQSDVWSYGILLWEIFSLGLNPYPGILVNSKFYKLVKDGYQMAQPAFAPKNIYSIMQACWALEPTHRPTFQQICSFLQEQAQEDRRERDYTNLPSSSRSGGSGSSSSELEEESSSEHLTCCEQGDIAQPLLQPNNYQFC
Description: The kinase activity of various protein tyrosine kinases can be measured by providing ATP and a suitable peptide or protein tyrosine-containing substrate, and assaying the transfer of phosphate moiety to the tyrosine residue. Recombinant protein corresponding to the cytoplasmic domain of the human CSF-1R was purchased from Invitrogen Corporation, Carlsbad, Calif. U.S.A. (#PV3249). For each assay, test compounds were serially diluted, starting at 25 μM with 3 fold dilutions, in DMSO in 384 well plates then mixed with an appropriate kinase reaction buffer consisting of 50 mM Hepes, 5 mM MgCl2, 10 mM MnCl2, 0.1% BSA, pH 7.5, 1.0 mM dithiothreitol, 0.01% Tween 80 plus 1 μM ATP. […] Added to the stopped reaction mix was 30 μL of PT66 Alphascreen beads (Perkin Elmer, Boston, Mass., U.S.A.). The reaction was incubated overnight and read on the Envision (Perkin Elmer). Phosphorylated peptide product was measured with the AlphaScreen system (Perkin Elmer) using acceptor beads coated with anti-phosphotyrosine antibody PT66 and donor beads coated with streptavidin that emit a fluorescent signal at the 520-620 nm emission wave length if in close proximity.
CSF-1R kinase was added at final concentration of 4 nM.

kinase domain of cKIT = molecular target: T2, kinase domain of cKIT (Homo sapiens, UniProt P10721); experiment: Inhibition of cKIT kinase signaling in an in vitro biochemical assay (alphascreen); settings: tested at about 1 μM; for inhibition at 1 µM: read-out: cKit percent inhibition
T2 construct: The kinase domain of cKIT was assayed in 50 mM Hepes; purchased Upstate 14-559
Description: (§1) The IC50 values for the inhibition of RTKs were determined in the alphascreen format measuring the inhibition by compound of phosphate transfer to a substrate by the respective enzyme. Briefly, the respective RTK domain purchased as human recombinant protein (cKIT Upstate #14-559, PDGFRb Invitrogen #P3082) were incubated with serial dilutions of compound in the presence of substrate and ATP concentrations within 3 times the Km of the enzyme.
(§2) Alphascreen PY20 beads were added to the stopped cKIT reactions and PY20 Ab/Protein A Alphascreen beads were added to the PDGFRβ stopped reactions. Both reactions were incubated overnight and read on the Alphascreen reader.

kinase domain of PDGFRβ = molecular target: T3, kinase domain of PDGFRβ (Homo sapiens, UniProt P09619); experiment: Inhibition of PDGFRb kinase signaling in an in vitro biochemical assay (alphascreen); settings: tested at about 1 μM; for inhibition at 1 µM: read-out: PDGFRβ percent inhibition
T3 construct: The kinase domain of PDGFRβ was assayed in 50 mM Hepes; purchased Invitrogen P3082
Description: as §1, §2

T2 sequence (P10721 589-937 limits assumed): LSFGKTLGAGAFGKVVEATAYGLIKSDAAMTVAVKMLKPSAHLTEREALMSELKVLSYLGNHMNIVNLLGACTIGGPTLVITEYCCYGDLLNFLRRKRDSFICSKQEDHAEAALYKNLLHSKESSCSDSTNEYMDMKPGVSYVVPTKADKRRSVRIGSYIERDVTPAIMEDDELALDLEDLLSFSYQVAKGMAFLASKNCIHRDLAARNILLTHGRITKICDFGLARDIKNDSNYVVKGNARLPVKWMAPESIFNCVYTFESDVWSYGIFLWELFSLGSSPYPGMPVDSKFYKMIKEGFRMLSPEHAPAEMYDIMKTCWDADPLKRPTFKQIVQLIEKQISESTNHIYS
T3 sequence (P09619 600-962 limits assumed): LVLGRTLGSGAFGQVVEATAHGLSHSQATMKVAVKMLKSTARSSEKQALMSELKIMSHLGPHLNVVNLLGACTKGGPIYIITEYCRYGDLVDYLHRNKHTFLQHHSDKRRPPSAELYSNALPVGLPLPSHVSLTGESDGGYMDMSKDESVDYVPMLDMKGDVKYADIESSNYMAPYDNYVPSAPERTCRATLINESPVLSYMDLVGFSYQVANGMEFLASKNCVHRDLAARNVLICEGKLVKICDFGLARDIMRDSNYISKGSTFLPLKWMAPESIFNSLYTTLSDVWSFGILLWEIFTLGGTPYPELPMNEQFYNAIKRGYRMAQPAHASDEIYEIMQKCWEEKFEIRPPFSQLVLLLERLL

CNC(=O)c1cc(Oc2ccc3nc(NCC(O)COC)sc3c2)ccn1 (stereo not drawn) [Compound 127]
inhibition at 1 µM ([1]; compounds of Table 3): 95% | inhibition at 1 µM (kinase domain of cKIT; compounds of Table 3): 0% | inhibition at 1 µM (kinase domain of PDGFRβ; compounds of Table 3): 0%

OCc1cc(Oc2ccc3nc(NCC4CCCCC4)oc3c2)ccn1 [Compound 80, {4-[2-(Cyclohexylmethyl-amino)-benzooxazol-6-yloxy]-pyridin-2-yl}-methanol]
inhibition at 1 µM [1]: 87% | inhibition at 1 µM (kinase domain of cKIT): 7% | inhibition at 1 µM (kinase domain of PDGFRβ): 0%

CNC(=O)c1cc(Oc2ccc3nc(N[C@H]4CC[C@@H](NC(=O)[C@@H]5CCCO5)CC4)sc3c2)ccn1 [Compound 136]
inhibition at 1 µM ([1]; compounds of Table 3): 86% | inhibition at 1 µM (kinase domain of cKIT; compounds of Table 3): 3% | inhibition at 1 µM (kinase domain of PDGFRβ; compounds of Table 3): 0%

4-(2-Cyclobutylamino- benzooxazol-6-yloxy)- pyridine-2-carboxylic acid methylamide [Compound 22]
CSF-1R percent inhibition ([1]; compounds of Table 4): 100% | cKit percent inhibition (kinase domain of cKIT; compounds of Table 4): 89% | PDGFRβ percent inhibition (kinase domain of PDGFRβ; compounds of Table 4): 90%

CNC(=O)c1cc(Oc2ccc3nc(N[C@H]4CCN(C(C)=O)C4)sc3c2)ccn1 [Example 305, (S)-4-(2-(1-acetylpyrrolidin-3-ylamino)benzo[d]thiazol-6-yloxy)-N-methylpicolinamide]
inhibition at 1 µM [1]: 87% | inhibition at 1 µM (kinase domain of cKIT): 15% | inhibition at 1 µM (kinase domain of PDGFRβ): 7%

CNC(=O)c1cc(Oc2ccc3nc(N[C@H]4CCCC[C@H]4NC(=O)c4ccccc4)sc3c2)ccn1 [Example 312, 4-(2-((1S,2R)-2-benzamidocyclohexylamino)benzo[d]thiazol-6-yloxy)-N-methylpicolinamide]
inhibition at 1 µM [1]: 76% | inhibition at 1 µM (kinase domain of cKIT): 0% | inhibition at 1 µM (kinase domain of PDGFRβ): 14%

NCc1cc(Oc2ccc3nc(NCC4CCCCC4)oc3c2)ccn1 [Compound 111, [6-(2-Aminomethyl-pyridin-4-yloxy)-benzooxazol-2-yl]-cyclohexylmethyl-amine]
inhibition at 1 µM [1]: 25% | inhibition at 1 µM (kinase domain of cKIT): 15% | inhibition at 1 µM (kinase domain of PDGFRβ): 2%

CNC(=O)c1cc(Oc2ccc3nc(N[C@@H](C(=O)NC)c4ccccc4)oc3c2)ccn1 [Compound 36, 4-{2-[((R)-Methylcarbamoyl-phenyl-methyl)-amino]-benzo-oxazol-6-yloxy}-pyridine-2-carboxylic acid methylamide]
inhibition at 1 µM [1]: 78% | inhibition at 1 µM (kinase domain of cKIT): 0% | inhibition at 1 µM (kinase domain of PDGFRβ): 6%

CNC(=O)c1cc(Oc2ccc3nc(N[C@@H]4CCCN(C(C)=O)C4)sc3c2)ccn1 [Example 302, (R)-4-(2-(1-acetylpiperidin-3-ylamino)benzo[d]thiazol-6-yloxy)-N-methylpicolinamide]
inhibition at 1 µM [1]: 68% | inhibition at 1 µM (kinase domain of cKIT): 20% | inhibition at 1 µM (kinase domain of PDGFRβ): 0%

CC(=O)N[C@H]1CCN(c2cc(Oc3ccc4nc(N[C@@H]5CCCC[C@H]5O)sc4c3)ccn2)C1 [Cmpd 178, N-((S)-1-(4-(2-((1R,2R)-2-hydroxycyclohexylamino)benzo[d]thiazol-6-yloxy)pyridin-2-yl)pyrrolidin-3-yl)acetamide]
inhibition at 1 µM ([1]; compounds of Table 3): 82% | inhibition at 1 µM (kinase domain of cKIT; compounds of Table 3): 17% | inhibition at 1 µM (kinase domain of PDGFRβ; compounds of Table 3): -3%

CC(=O)N[C@@H]1CCN(c2cc(Oc3ccc4nc(N[C@@H]5CCCC[C@H]5O)sc4c3)ccn2)C1 [Cmpd 177, N-((R)-1-(4-(2-((1R,2R)-2-hydroxycyclohexylamino)benzo[d]thiazol-6-yloxy)pyridin-2-yl)pyrrolidin-3-yl)acetamide]
inhibition at 1 µM ([1]; compounds of Table 3): 67% | inhibition at 1 µM (kinase domain of cKIT; compounds of Table 3): 15% | inhibition at 1 µM (kinase domain of PDGFRβ; compounds of Table 3): 0%

CNC(=O)c1cc(Oc2ccc3nc(N(C)Cc4ccccc4)oc3c2)ccn1 [Compound 106, 4-[2-(Benzyl-methyl-amino)-benzooxazol-6-yloxy]-pyridine-2-carboxylic acid methylamide]
inhibition at 1 µM [1]: 99% | inhibition at 1 µM (kinase domain of cKIT): 2% | inhibition at 1 µM (kinase domain of PDGFRβ): 0%

CNC(=O)c1cc(Oc2ccc3nc(N[C@H]4CCCNC4)sc3c2)ccn1 [Example 332, (S)-N-methyl-4-(2-(piperidin-3-ylamino)benzo[d]thiazol-6-yloxy)picolinamide]
inhibition at 1 µM [1]: 48% | inhibition at 1 µM (kinase domain of cKIT): 38% | inhibition at 1 µM (kinase domain of PDGFRβ): 10%

O[C@@H]1CCCC[C@H]1Nc1nc2ccc(Oc3ccnc(C4=CCNCC4)c3)cc2s1 [Compound 161]
inhibition at 1 µM ([1]; compounds of Table 3): 54% | inhibition at 1 µM (kinase domain of cKIT; compounds of Table 3): 20% | inhibition at 1 µM (kinase domain of PDGFRβ; compounds of Table 3): 26%

CNC(=O)c1cc(Oc2ccc3nc(N[C@H]4CC[C@@H](NC(=O)[C@@H]5CCCN5C)CC4)sc3c2)ccn1 [Compound 137]
inhibition at 1 µM ([1]; compounds of Table 3): 71% | inhibition at 1 µM (kinase domain of cKIT; compounds of Table 3): 8% | inhibition at 1 µM (kinase domain of PDGFRβ; compounds of Table 3): 2%

CN1CCN(c2cc(Oc3ccc4nc(N[C@@H]5CCCC[C@H]5O)sc4c3)ccn2)CC1 [Cmpd 176, (1R,2R)-2-(6-(2-(4-methylpiperazin-1-yl)pyridin-4-yloxy)benzo[d]thiazol-2-ylamino)cyclohexanol]
inhibition at 1 µM ([1]; compounds of Table 3): 63% | inhibition at 1 µM (kinase domain of cKIT; compounds of Table 3): 12% | inhibition at 1 µM (kinase domain of PDGFRβ; compounds of Table 3): 0%

CNC(=O)c1cc(Oc2ccc3nc(NC4CCN(Cc5ccccc5)CC4)oc3c2)ccn1 [Compound 103, 4-[2-(1-Benzyl-piperidin-4-ylamino)-benzooxazol-6-yloxy]-pyridine-2-carboxylic acid methylamide]
inhibition at 1 µM [1]: 60% | inhibition at 1 µM (kinase domain of cKIT): 8% | inhibition at 1 µM (kinase domain of PDGFRβ): 14%

CNC(=O)c1cc(Oc2ccc3nc(N[C@H]4CCCC[C@H]4NC(=O)[C@H]4CCCO4)sc3c2)ccn1 [Example 309, N-methyl-4-(2-((1S,2R)-2-((R)-tetrahydrofuran-2-carboxamido)cyclohexylamino)benzo[d]thiazol-6-yloxy)picolinamide]
inhibition at 1 µM [1]: 74% | inhibition at 1 µM (kinase domain of cKIT): 6% | inhibition at 1 µM (kinase domain of PDGFRβ): 13%

CNC(=O)c1cc(Oc2ccc3nc(NCc4c(F)cccc4Cl)oc3c2)ccn1 [Compound 78, 4-[2-(2-Chloro-6-fluoro-benzylamino)-benzooxazol-6-yloxy]-pyridine-2-carboxylic acid methylamide]
inhibition at 1 µM [1]: 87% | inhibition at 1 µM (kinase domain of cKIT): 9% | inhibition at 1 µM (kinase domain of PDGFRβ): 0%

CNC(=O)c1cc(Oc2ccc3nc(NCC(C)C)oc3c2)ccn1 [Compound 99, 4-(2-Isobutylamino-benzooxazol-6-yloxy)-pyridine-2-carboxylic acid methylamide]
inhibition at 1 µM [1]: 63% | inhibition at 1 µM (kinase domain of cKIT): 12% | inhibition at 1 µM (kinase domain of PDGFRβ): 9%

CNC(=O)c1cc(Oc2ccc3nc(N[C@H]4CCCN(C(=O)NC(C)C)C4)sc3c2)ccn1 [Example 333, (S)-4-(2-(1-(isopropylcarbamoyl)piper-idin-3-ylamino)benzo[d]thiazol-6-yloxy)-N-methylpicolinamide]
inhibition at 1 µM [1]: 86% | inhibition at 1 µM (kinase domain of cKIT): 21% | inhibition at 1 µM (kinase domain of PDGFRβ): 6%

O[C@@H]1CCCC[C@H]1Nc1nc2ccc(Oc3ccnc(N4CCCCC4)c3)cc2s1 [Cmpd 174, (1R,2R)-2-(6-(2-(piperidin-1-yl)pyridin-4-yloxy)benzo[d]thiazol-2-ylamino)cyclohexanol]
inhibition at 1 µM ([1]; compounds of Table 3): 86% | inhibition at 1 µM (kinase domain of cKIT; compounds of Table 3): 18% | inhibition at 1 µM (kinase domain of PDGFRβ; compounds of Table 3): 3%

CNC(=O)c1cc(Oc2ccc3nc(N[C@H]4CC[C@@H](NC(=O)c5ccccc5)CC4)sc3c2)ccn1 [Compound 135]
inhibition at 1 µM ([1]; compounds of Table 3): 75% | inhibition at 1 µM (kinase domain of cKIT; compounds of Table 3): 21% | inhibition at 1 µM (kinase domain of PDGFRβ; compounds of Table 3): 11%

CNC(=O)c1cc(Oc2ccc3nc(N[C@H]4CCCC[C@H]4N)sc3c2)ccn1 [Example 292, 4-(2-((1S,2R)-2-aminocyclohexylamino)benzo[d]thiazol-6-yloxy)-N-methylpicolinamide]
inhibition at 1 µM ([1]; compounds of Table 3): 95% | inhibition at 1 µM (kinase domain of cKIT; compounds of Table 3): 3% | inhibition at 1 µM (kinase domain of PDGFRβ; compounds of Table 3): 0%

CNC(=O)c1cc(Oc2ccc3nc(N[C@@H]4CCC(=O)NC4)sc3c2)ccn1 [Compound 86]
inhibition at 1 µM ([1]; compounds of Table 3): 63% | inhibition at 1 µM (kinase domain of cKIT; compounds of Table 3): 15% | inhibition at 1 µM (kinase domain of PDGFRβ; compounds of Table 3): 32%
